{
  "source": "BindingDB's records for doi:10.1021/jm00072a019",
  "about": "(J. Uriach & Cía., 1993)",
  "data": [
    {"assay": "Inhibition of PAF-induced platelet aggregation", "units": {"IC50": "nM"}, "values": [
      {"smiles": "CNC(=O)C(CC(=O)N1CCN(C(C#N)c2cccnc2C)CC1)c1ccccc1", "note": "(stereo not given) [4-{4-[Cyano-(2-methyl-pyridin-3-yl)-methyl]-piperazin-1-yl}-N-methyl-4-oxo-2-phenyl-butyramide]", "IC50": 15200},
      {"smiles": "Cc1ncccc1C(C#N)N1CCN(C(=O)[C@H](C)NC(c2ccccc2)c2ccccc2)CC1", "note": "(stereo not given in full) [{4-[2-(Benzhydryl-amino)-propionyl]-piperazin-1-yl}-(2-methyl-pyridin-3-yl)-acetonitrile]", "IC50": 13},
      {"smiles": "Cc1ncccc1C(C#N)N1CCN(C(=O)[C@@H](C)NC(c2ccccc2)c2ccccc2)CC1", "note": "(stereo not given in full) [{4-[2-(Benzhydryl-amino)-propionyl]-piperazin-1-yl}-(2-methyl-pyridin-3-yl)-acetonitrile]", "IC50": 30},
      {"smiles": "Cc1ncccc1C(C#N)N1CCN(C(=O)CC(NC(=O)c2cccnc2)c2ccccc2)CC1", "note": "(stereo not given) [N-(3-{4-[Cyano-(2-methyl-pyridin-3-yl)-methyl]-piperazin-1-yl}-3-oxo-1-phenyl-propyl)-nicotinamide]", "IC50": 8.9},
      {"smiles": "Cc1ncccc1C(C#N)N1CCN(C(=O)CNC2c3ccccc3-c3ccccc32)CC1", "note": "(stereo not given) [{4-[2-(9H-Fluoren-9-ylamino)-acetyl]-piperazin-1-yl}-(2-methyl-pyridin-3-yl)-acetonitrile]", "IC50": 50}
    ]},
    {"assay": "In vitro inhibition of PAF-induced platelet aggregation in male rabbits", "units": {"IC50": "nM"}, "values": [
      {"smiles": "Cc1ncccc1C(C#N)N1CCN(C(=O)CON=C(c2ccccc2)c2ccccc2)CC1", "note": "(stereo not given) [[4-(2-Benzhydrylideneaminooxy-acetyl)-piperazin-1-yl]-(2-methyl-pyridin-3-yl)-acetonitrile]", "IC50": 87},
      {"smiles": "Cc1ncccc1C(C#N)N1CCN(C(=O)CC(C)c2ccccc2)CC1", "note": "(stereo not given) [(2-Methyl-pyridin-3-yl)-[4-(3-phenyl-butyryl)-piperazin-1-yl]-acetonitrile]", "IC50": 32},
      {"smiles": "Cc1ncccc1C(C#N)N1CCN(C(=O)CC(c2ccccc2)N2CCCC2)CC1", "note": "(stereo not given) [(2-Methyl-pyridin-3-yl)-[4-(3-phenyl-3-pyrrolidin-1-yl-propionyl)-piperazin-1-yl]-acetonitrile]", "IC50": 18},
      {"smiles": "Cc1ncccc1C(C#N)N1CCN(C(=O)CC(NC(=O)c2cnccn2)c2ccccc2)CC1", "note": "(stereo not given) [Pyrazine-2-carboxylic acid (3-{4-[cyano-(2-methyl-pyridin-3-yl)-methyl]-piperazin-1-yl}-3-oxo-1-phenyl-propyl)-amide]", "IC50": 820},
      {"smiles": "Cc1ncccc1C(C#N)N1CCN(C(=O)CC(O)(c2ccccc2)C(F)(F)F)CC1", "note": "(stereo not given) [(2-Methyl-pyridin-3-yl)-[4-(4,4,4-trifluoro-3-hydroxy-3-phenyl-butyryl)-piperazin-1-yl]-acetonitrile]", "IC50": 14},
      {"smiles": "Cc1ncccc1C(C#N)N1CCN(C(=O)/C=C(/c2ccccc2)C(F)(F)F)CC1", "note": "(stereo not given) [(2-Methyl-pyridin-3-yl)-[4-(4,4,4-trifluoro-3-phenyl-but-2-enoyl)-piperazin-1-yl]-acetonitrile]", "IC50": 120},
      {"smiles": "Cc1ncccc1C(C#N)N1CCN(C(=O)CC(NC(=O)c2ccoc2)c2ccccc2)CC1", "note": "(stereo not given) [Furan-3-carboxylic acid (3-{4-[cyano-(2-methyl-pyridin-3-yl)-methyl]-piperazin-1-yl}-3-oxo-1-phenyl-propyl)-amide]", "IC50": 2600},
      {"smiles": "Cc1ncccc1C(C#N)N1CCN(C(=O)CC(NS(=O)(=O)c2ccccc2)c2ccccc2)CC1", "note": "(stereo not given) [N-(3-{4-[Cyano-(2-methyl-pyridin-3-yl)-methyl]-piperazin-1-yl}-3-oxo-1-phenyl-propyl)-benzenesulfonamide]", "IC50": 18},
      {"smiles": "Cc1ncccc1C(C#N)N1CCN(C(=O)CS(=O)(=O)C(c2ccccc2)c2ccccc2)CC1", "note": "(stereo not given) [{4-[2-(Diphenyl-methanesulfonyl)-acetyl]-piperazin-1-yl}-(2-methyl-pyridin-3-yl)-acetonitrile]", "IC50": 26},
      {"smiles": "Cc1ncccc1C(C#N)N1CCN(C(=O)CC(C)(O)c2ccccc2)CC1", "note": "(stereo not given) [[4-(3-Hydroxy-3-phenyl-butyryl)-piperazin-1-yl]-(2-methyl-pyridin-3-yl)-acetonitrile]", "IC50": 36},
      {"smiles": "Cc1ncccc1C(C#N)N1CCN(C(=O)CC(O)(c2ccccc2)c2cccnc2)CC1", "note": "(stereo not given) [[4-(3-Hydroxy-3-phenyl-3-pyridin-3-yl-propionyl)-piperazin-1-yl]-(2-methyl-pyridin-3-yl)-acetonitrile]", "IC50": 32},
      {"smiles": "CO/N=C(/C)C(c1cccnc1C)N1CCN(C(=O)CC(c2ccccc2)c2ccccc2)CC1", "note": "(stereo not given) [1-{4-[2-Methoxyimino-1-(2-methyl-pyridin-3-yl)-propyl]-piperazin-1-yl}-3,3-diphenyl-propan-1-one]", "IC50": 7800},
      {"smiles": "Cc1ncccc1C(C#N)N1CCN(C(=O)CN(C(c2ccccc2)c2ccccc2)S(C)(=O)=O)CC1", "note": "(stereo not given) [N-Benzhydryl-N-(2-{4-[cyano-(2-methyl-pyridin-3-yl)-methyl]-piperazin-1-yl}-2-oxo-ethyl)-methanesulfonamide]", "IC50": 82},
      {"smiles": "Cc1ncccc1C(C#N)N1CCN(C(=O)C[S+]([O-])C(c2ccccc2)c2ccccc2)CC1", "note": "(stereo not given) [{4-[2-(Diphenyl-methanesulfinyl)-acetyl]-piperazin-1-yl}-(2-methyl-pyridin-3-yl)-acetonitrile]", "IC50": 44},
      {"smiles": "Cc1ncccc1C(C#N)N1CCN(C(=O)CC(O)(c2ccc(F)cc2)c2ccc(F)cc2)CC1", "note": "(stereo not given) [{4-[3,3-Bis-(4-fluoro-phenyl)-3-hydroxy-propionyl]-piperazin-1-yl}-(2-methyl-pyridin-3-yl)-acetonitrile]", "IC50": 75},
      {"smiles": "Cc1ncccc1C(C#N)N1CCN(C(=O)CC(c2ccccc2)C(F)(F)F)CC1", "note": "(stereo not given) [(2-Methyl-pyridin-3-yl)-[4-(4,4,4-trifluoro-3-phenyl-butyryl)-piperazin-1-yl]-acetonitrile]", "IC50": 12},
      {"smiles": "CCOC(=O)C(CC(=O)N1CCN(C(C#N)c2cccnc2C)CC1)(c1ccccc1)c1ccccc1", "note": "(stereo not given) [4-{4-[Cyano-(2-methyl-pyridin-3-yl)-methyl]-piperazin-1-yl}-4-oxo-2,2-diphenyl-butyric acid ethyl ester]", "IC50": 46},
      {"smiles": "Cc1ncccc1C(C#N)N1CCN(C(=O)CC(NC(=O)c2ccc[nH]c2=O)c2ccccc2)CC1", "note": "(stereo not given) [N-(3-{4-[Cyano-(2-methyl-pyridin-3-yl)-methyl]-piperazin-1-yl}-3-oxo-1-phenyl-propyl)-2-hydroxy-nicotinamide]", "IC50": 29},
      {"smiles": "Cc1ncccc1C(C#N)N1CCN(C(=O)CC(NS(C)(=O)=O)c2ccccc2)CC1", "note": "(stereo not given) [N-(3-{4-[Cyano-(2-methyl-pyridin-3-yl)-methyl]-piperazin-1-yl}-3-oxo-1-phenyl-propyl)-methanesulfonamide]", "IC50": 21},
      {"smiles": "Cc1ncccc1C(C#N)N1CCN(C(=O)/C=C(\\c2ccccc2)C(F)(F)F)CC1", "note": "(stereo not given) [(2-Methyl-pyridin-3-yl)-[4-(4,4,4-trifluoro-3-phenyl-but-2-enoyl)-piperazin-1-yl]-acetonitrile]", "IC50": 55},
      {"smiles": "Cc1ncccc1C(C#N)N1CCN(C(=O)CC(NC(=O)c2ncccc2O)c2ccccc2)CC1", "note": "(stereo not given) [3-Hydroxy-pyridine-2-carboxylic acid (3-{4-[cyano-(2-methyl-pyridin-3-yl)-methyl]-piperazin-1-yl}-3-oxo-1-phenyl-propyl)-amide]", "IC50": 130},
      {"smiles": "Cc1ncccc1C(C#N)N1CCN(C(=O)CC(c2ccccc2)N2CCCS2(=O)=O)CC1", "note": "(stereo not given) [{4-[3-(1,1-Dioxo-1lambda*6*-isothiazolidin-2-yl)-3-phenyl-propionyl]-piperazin-1-yl}-(2-methyl-pyridin-3-yl)-acetonitrile]", "IC50": 170},
      {"smiles": "CCOC(=O)C(c1cccnc1C)N1CCN(C(=O)CC(c2ccccc2)c2ccccc2)CC1", "note": "(stereo not given) [[4-(3,3-Diphenyl-propionyl)-piperazin-1-yl]-(2-methyl-pyridin-3-yl)-acetic acid ethyl ester]", "IC50": 15500},
      {"smiles": "Cc1ncccc1C(CO)N1CCN(C(=O)CC(c2ccccc2)c2ccccc2)CC1", "note": "(stereo not given) [1-{4-[2-Hydroxy-1-(2-methyl-pyridin-3-yl)-ethyl]-piperazin-1-yl}-3,3-diphenyl-propan-1-one]", "IC50": 4000},
      {"smiles": "Cc1ncccc1C(C#N)N1CCN(C(=O)CC(c2ccccc2)n2cccc2)CC1", "note": "(stereo not given) [(2-Methyl-pyridin-3-yl)-[4-(3-phenyl-3-pyrrol-1-yl-propionyl)-piperazin-1-yl]-acetonitrile]", "IC50": 350}
    ]}
  ]
}
